Experimental data as given in US10906940B2, “Antimicrobial peptides, pharmaceutical compositions, and methods of use thereof” (priority 2014, dated 2021).
In brackets after ≈: the same amount, converted by molar mass. Where a SMILES comes first, the peptide text is derived from it. Bridges are numbered along the chain shown (N, C = ends). [ ]: non-standard residue; d: D form. The star is where a group is joined. Tridecanoyl = CCCCCCCCCCCCC(=O)*; Undecanoyl = CCCCCCCCCCC(=O)*; dOrn = NCCC[C@@H](N)C(=O)O

Assays:
E. faecalis ATCC 51575 = assay: microbe, parasite or virus in culture; format: cell-based, Enterococcus faecalis; conditions: ATCC 51575
From the text: (§1) The same MIC assay as in Example 6 was used to determine the antimicrobial susceptibility of Compound A, L-form (FIG. 15), and several variants. One variant was Compound A, D-form, with D-Lysine at position 7. Compound B is a variant in the fatty acid chain, with a fatty acid chain composition of C15H29O, and having D-Lys at position 7. Compound C is a variant in the fatty acid chain with a fatty acid chain composition of C11H21O, and having D-Lys at position 7. Variant D is a sequence variant with Phe at position 6 of the cyclic peptide, and having D-Lys at position 7. All variants were chemically synthesized.

E. faecalis BAA-2365 = assay: microbe, parasite or virus in culture; format: cell-based, Enterococcus faecalis; conditions: BAA-2365
From the text: as §1

[1] = tested on: E. coli CVM 40137 (DHA-1); format: cell-based, Escherichia coli
From the text: as §1

E. coli CVM 15103 (tem2) = format: cell-based, Escherichia coli
From the text: as §1

E. coli CVM40148 (veb-1) = format: cell-based, Escherichia coli
From the text: as §1

[2] = tested on: E. coli CVM 40141 (imp-1); format: cell-based, Escherichia coli
From the text: as §1

[3] = tested on: E. coli CVM 40127 (oxa-2); format: cell-based, Escherichia coli
From the text: as §1

E. coli CVM 15104 (shv3) = format: cell-based, Escherichia coli
From the text: as §1

[4] = tested on: E. coli CVM 40139 (fox-1); format: cell-based, Escherichia coli
From the text: as §1

[5] = tested on: Salmonella CVM 1290 (cmy2); format: cell-based
From the text: as §1

[6] = tested on: Salmonella CVM 40119 (tem 12); format: cell-based
From the text: as §1

[7] = tested on: Serratia marcescens SAMN 04276914; format: cell-based; conditions: SAMN 04276914
From the text: as §1

[8] = tested on: Serratia marcescens SBJ-9047; format: cell-based; conditions: SBJ-9047
From the text: as §1

[9] = tested on: Serratia marcescens SBJ-8283; format: cell-based; conditions: SBJ-8283
From the text: as §1

[10] = tested on: Enterobacter cloacae SBJ-9395; format: cell-based; conditions: SBJ-9395
From the text: as §1

[11] = tested on: Serratia marcescens SAMN 04276915; format: cell-based; conditions: SAMN 04276915
From the text: as §1

[12] = tested on: Serratia marcescens SAMN04022954; format: cell-based; conditions: SAMN04022954
From the text: as §1

[13] = tested on: Salmonella CVM 40118 (oxa-1); format: cell-based
From the text: as §1

[14] = tested on: P. aeruginosa CVM 40144 (PER-1); format: cell-based, Pseudomonas aeruginosa
From the text: as §1

[15] = tested on: K. pneumonia CVM 15105 (shv5); format: cell-based, Klebsiella pneumoniae
From the text: as §1

[16] = tested on: K. pneumoniae CVM 15102 (shv5); format: cell-based, Klebsiella pneumoniae
From the text: as §1

[17] = tested on: K. pneumonia CVM 40142 (ges-1); format: cell-based, Klebsiella pneumoniae
From the text: as §1

[18] = tested on: K. pneumoniae CVM 9246 (shv18, oxa2); format: cell-based, Klebsiella pneumoniae
From the text: as §1

[19] = tested on: E. cloacae CVM 15101 (P99); format: cell-based, Enterobacter cloacae
From the text: as §1

S. aureus 8 = assay: microbe, parasite or virus in culture; format: cell-based, Staphylococcus aureus; conditions: 8
From the text: as §1

S. aureus 19 = assay: microbe, parasite or virus in culture; format: cell-based, Staphylococcus aureus; conditions: 19
From the text: as §1

S. aureus 10 = assay: microbe, parasite or virus in culture; format: cell-based, Staphylococcus aureus; conditions: 10
From the text: as §1

S. aureus 2 = assay: microbe, parasite or virus in culture; format: cell-based, Staphylococcus aureus; conditions: 2
From the text: as §1

S. aureus 14 = assay: microbe, parasite or virus in culture; format: cell-based, Staphylococcus aureus; conditions: 14
From the text: as §1

S. aureus 6 = assay: microbe, parasite or virus in culture; format: cell-based, Staphylococcus aureus; conditions: 6
From the text: as §1

S. aureus 4 = assay: microbe, parasite or virus in culture; format: cell-based, Staphylococcus aureus; conditions: 4
From the text: as §1

S. aureus 12 = assay: microbe, parasite or virus in culture; format: cell-based, Staphylococcus aureus; conditions: 12
From the text: as §1

[20] = tested on: S. Heidelberg CVM 40140 (cmy-2); format: cell-based, Salmonella
From the text: as §1

[21] = tested on: S. Bareilly CVM40145 (ACC-1); format: cell-based, Salmonella
From the text: as §1

[22] = tested on: S. Newport CVM 40115 (cmy 2); format: cell-based, Salmonella
From the text: as §1

[23] = tested on: S. Keur massar CVM 40135 (shv12); format: cell-based, Salmonella
From the text: as §1

[24] = tested on: S. Typhimurium CVM 40117 (ctx-m-5); format: cell-based, Salmonella
From the text: as §1

E. faecium ATCC 2320 = assay: microbe, parasite or virus in culture; format: cell-based; conditions: ATCC 2320
From the text: as §1

E. faecium ATCC 700221 = assay: microbe, parasite or virus in culture; format: cell-based; conditions: ATCC 700221
From the text: as §1

E. faecium BAA-2318 = assay: microbe, parasite or virus in culture; format: cell-based; conditions: BAA-2318
From the text: as §1

SMILES	MIC (E. faecalis ATCC 51575)	MIC (E. faecalis BAA-2365)	MIC [1]	MIC (E. coli CVM 15103 (tem2))	MIC (E. coli CVM40148 (veb-1))	MIC [2]	MIC [3]	MIC (E. coli CVM 15104 (shv3))	MIC [4]	MIC [5]	MIC [6]	MIC [7]	MIC [8]	MIC [9]	MIC [10]	MIC [11]	MIC [12]	MIC [13]	MIC [14]	MIC [15]	further results
CCCCCCCCCCC(=O)N[C@H](CCCN)C(=O)N[C@H](C(=O)N[C@@H]1C(=O)N[C@H](CCCN)C(=O)N[C@@H](CO)C(=O)N[C@@H](Cc2ccc(O)cc2)C(=O)N[C@H](CCCCN)C(=O)N[C@H](CO)C(=O)N[C@@H]([C@@H](C)CC)C(=O)N2CCC[C@H]2C(=O)N[C@@H]([C@@H](C)CC)C(=O)N2CCC[C@H]2C(=O)N[C@@H]([C@@H](C)CC)C(=O)O[C@@H]1C)C(C)C [Compound C] (Undecanoyl-[dOrn]VT[dOrn]SY[dK][dS]IPIPI; ester 3-C; N-terminus assumed)	32 µg/mL (≈ 20 µM)	32 µg/mL (≈ 20 µM)	8 µg/mL (≈ 5.01 µM)	8 µg/mL (≈ 5.01 µM)	8 µg/mL (≈ 5.01 µM)	32 µg/mL (≈ 20 µM)	8 µg/mL (≈ 5.01 µM)	8 µg/mL (≈ 5.01 µM)	8 µg/mL (≈ 5.01 µM)	16 µg/mL (≈ 10 µM)	8 µg/mL (≈ 5.01 µM)	64 µg/mL (≈ 40.1 µM)	64 µg/mL (≈ 40.1 µM)	32 µg/mL (≈ 20 µM)	8 µg/mL (≈ 5.01 µM)	≥128 µg/mL	64 µg/mL (≈ 40.1 µM)	4 µg/mL (≈ 2.51 µM)	16 µg/mL (≈ 10 µM)	8 µg/mL (≈ 5.01 µM)	MIC [16]: 8 µg/mL (≈ 5.01 µM); MIC [17]: 8 µg/mL (≈ 5.01 µM); MIC [18]: 8 µg/mL (≈ 5.01 µM); MIC [19]: 8 µg/mL (≈ 5.01 µM); MIC (S. aureus 8): 8 µg/mL (≈ 5.01 µM); MIC (S. aureus 19): 8 µg/mL (≈ 5.01 µM); MIC (S. aureus 10): 8 µg/mL (≈ 5.01 µM); MIC (S. aureus 2): 8 µg/mL (≈ 5.01 µM); MIC (S. aureus 14): 8 µg/mL (≈ 5.01 µM); MIC (S. aureus 6): 8 µg/mL (≈ 5.01 µM); MIC (S. aureus 4): 8 µg/mL (≈ 5.01 µM); MIC (S. aureus 12): 8 µg/mL (≈ 5.01 µM); MIC [20]: 16 µg/mL (≈ 10 µM); MIC [21]: 16 µg/mL (≈ 10 µM); MIC [22]: 16 µg/mL (≈ 10 µM); MIC [23]: 16 µg/mL (≈ 10 µM); MIC [24]: 16 µg/mL (≈ 10 µM); MIC (E. faecium ATCC 2320): 8 µg/mL (≈ 5.01 µM); MIC (E. faecium ATCC 700221): 8 µg/mL (≈ 5.01 µM); MIC (E. faecium BAA-2318): 8 µg/mL (≈ 5.01 µM)
CCCCCCCCCCCCC(=O)N[C@H](CCCN)C(=O)N[C@H](C(=O)N[C@@H]1C(=O)N[C@H](CCCN)C(=O)N[C@@H](CO)C(=O)N[C@@H](Cc2ccccc2)C(=O)N[C@H](CCCCN)C(=O)N[C@H](CO)C(=O)N[C@@H]([C@@H](C)CC)C(=O)N2CCC[C@H]2C(=O)N[C@@H]([C@@H](C)CC)C(=O)N2CCC[C@H]2C(=O)N[C@@H]([C@@H](C)CC)C(=O)O[C@@H]1C)C(C)C [Variant D] (Tridecanoyl-[dOrn]VT[dOrn]SF[dK][dS]IPIPI; ester 3-C; N-terminus assumed)	8 µg/mL (≈ 4.97 µM)	8 µg/mL (≈ 4.97 µM)	8 µg/mL (≈ 4.97 µM)	8 µg/mL (≈ 4.97 µM)	8 µg/mL (≈ 4.97 µM)	16 µg/mL (≈ 9.95 µM)	8 µg/mL (≈ 4.97 µM)	16 µg/mL (≈ 9.95 µM)	8 µg/mL (≈ 4.97 µM)	8 µg/mL (≈ 4.97 µM)	8 µg/mL (≈ 4.97 µM)	64 µg/mL (≈ 39.8 µM)	≥128 µg/mL	32 µg/mL (≈ 19.9 µM)	32 µg/mL (≈ 19.9 µM)	≥128 µg/mL	≥128 µg/mL	8 µg/mL (≈ 4.97 µM)	16 µg/mL (≈ 9.95 µM)	8 µg/mL (≈ 4.97 µM)	MIC [16]: 8 µg/mL (≈ 4.97 µM); MIC [17]: 8 µg/mL (≈ 4.97 µM); MIC [18]: 8 µg/mL (≈ 4.97 µM); MIC [19]: 8 µg/mL (≈ 4.97 µM); MIC (S. aureus 8): 8 µg/mL (≈ 4.97 µM); MIC (S. aureus 19): 8 µg/mL (≈ 4.97 µM); MIC (S. aureus 10): 8 µg/mL (≈ 4.97 µM); MIC (S. aureus 2): 8 µg/mL (≈ 4.97 µM); MIC (S. aureus 14): 8 µg/mL (≈ 4.97 µM); MIC (S. aureus 6): 8 µg/mL (≈ 4.97 µM); MIC (S. aureus 4): 8 µg/mL (≈ 4.97 µM); MIC (S. aureus 12): 8 µg/mL (≈ 4.97 µM); MIC [20]: 16 µg/mL (≈ 9.95 µM); MIC [21]: 32 µg/mL (≈ 19.9 µM); MIC [22]: 8 µg/mL (≈ 4.97 µM); MIC [23]: 16 µg/mL (≈ 9.95 µM); MIC [24]: 8 µg/mL (≈ 4.97 µM); MIC (E. faecium ATCC 2320): 8 µg/mL (≈ 4.97 µM); MIC (E. faecium ATCC 700221): 8 µg/mL (≈ 4.97 µM); MIC (E. faecium BAA-2318): 8 µg/mL (≈ 4.97 µM)
